Series [1] relates to MCF-10A cells. Kind of series: Cellular uptake assay (UPLC-ESI-MS/MS of cell lysates). The series is classed as cell-based, human. As to conditions: 20 μM, 72 h. As to the method:
(§1) Figure 1 Conjugation of PZ with DHA increases the cellular uptake and stability of PZ and DHA. The cells were treated with 20 μM of PZ, DHA or PZ-DHA and cultured for 72 h at 37 °C. Cells were harvested and washed thoroughly using cold PBS. Cells were lysed in cold acetone containing 0.05 mg/mL quercetin, and cell lysates were collected by centrifugation and analyzed by using UPLC-ESI-MS/MS. (A) mean % cellular uptake of PZ, DHA and PZ-DHA. (B) fold increase in intracellular PZ and DHA when conjugated. ANOVA multiple means statistical comparison method was performed and differences among means were compared using Tukey’s test; *p < 0.05. (MDA-MB-231 p = 0.008; MDA-MB-468 p = 0.01; 4T1 p = 0.02; MCF-7 p = 0.01; MCF-10A p = 0.0005).
(§2) Cells were seeded at a density of 3 × 10^5 cells (MDA-MB-231, MDA-MB-468, MCF-7, and MCF-10A) or 1 × 10^5 cells (4T1) /T-75 flask. The cells were cultured overnight to promote cell adhesion. Adherent cells were treated with a sub-cytotoxic concentration (20 μM) of PZ, DHA or PZ-DHA and cultured for 72 h at 37 °C. The supernatant was carefully removed, and cell monolayers were washed with cold PBS. Cells were harvested using TrypLE Express and washed thoroughly with cold PBS. […] The sample was analyzed using a UPLC/ESI/MS system. The percentage cell uptake of the total dose was quantified using standard curves of PZ (R^2 = 0.99), DHA (R^2 = 0.98) or PZ-DHA (R^2 = 0.99) made in methanol.
(§3) PZ-DHA and/or PZ-DHA metabolites in malignant/non-malignant epithelial cell lysates, in vitro microsome enzyme reaction mixtures, and mouse serum aliquots were determined using UPLC-ESI–MS/MS instrument (Waters Limited, Mississauga, ON, Canada). All mass spectroscopic analyses were performed using mass scan (full-scan, identification of unknowns) and single ion monitoring (SIM; quantification of PZ, DHA, PZ-DHA, and quercetin) modes of a Waters H-class UPLC separations module coupled with a Micromass Quattro micro API MS/MS system and MassLynx V4.0 control software. […]

The test system of series [2] is MCF-7 cells. The description is as above. Type of series: cell-based, human. The following applies: 20 μM, 72 h. As to the method: as §1, §2, §3
Series [3] has as its system MDA-MB-468 cells. Described as above. As to conditions: 20 μM, 72 h. The series is classed as cell-based, human. As to the method:
as §1, §2, §3

Series [4] deals with mammary carcinoma cells and mammary epithelial cells. As to the kind of experiment: Cellular uptake assay, all cell lines together. Type of series: cell-based, human and mouse. As to conditions: 72 h, 20 μM. As to the method:
as §1
Cells were seeded at a density of 3 × 10^5 cells (MDA-MB-231, MDA-MB-468, MCF-7, and MCF-10A) or 1 × 10^5 cells (4T1) /T-75 flask. The cells were cultured overnight to promote cell adhesion. Adherent cells were treated with a sub-cytotoxic concentration (20 μM) of PZ, DHA or PZ-DHA and cultured for 72 h at 37 °C. The supernatant was carefully removed, and cell monolayers were washed with cold PBS. Cells were harvested using TrypLE Express and washed thoroughly with cold PBS. The cell pellet was resuspended in 3 mL of cold acetone containing 0.05 mg/mL quercetin as the internal standard, and incubated overnight at 4 °C. Cell lysates were collected by centrifugation at 14,000×g for 15 min at 4 °C and samples were concentrated by evaporating acetone under a stream of nitrogen gas. Dry pellets were reconstituted in methanol and filtered. The sample was analyzed using a UPLC/ESI/MS system. The percentage cell uptake of the total dose was quantified using standard curves of PZ (R^2 = 0.99), DHA (R^2 = 0.98) or PZ-DHA (R^2 = 0.99) made in methanol.
PZ-DHA and/or PZ-DHA metabolites in malignant/non-malignant epithelial cell lysates, in vitro microsome enzyme reaction mixtures, and mouse serum aliquots were determined using UPLC-ESI–MS/MS instrument (Waters Limited, Mississauga, ON, Canada). All mass spectroscopic analyses were performed using mass scan (full-scan, identification of unknowns) and single ion monitoring (SIM; quantification of PZ, DHA, PZ-DHA, and quercetin) modes of a Waters H-class UPLC separations module coupled with a Micromass Quattro micro API MS/MS system and MassLynx V4.0 control software. An Allure biphenyl column (100 mm × 2.1 mm, 1.8 μm, Restek Pure Chromatography, Bellefonte, PA, USA) and a flow rate of 0.3 mL/min were employed. ESI- mode with a capillary voltage of 3000 V and a nebulizer gas (N2) temperature of 375 °C were used. A volume of 2 µL sample was injected.

On the set-up of series [5]: method as in PMID 31473253. As to conditions: 100 mg/kg body weight via intraperitoneal injections; cited from earlier work.
In series [6] the test system is 4T1 breast cancer cells. Also noted: method as in PMID 31473253. As to conditions: intraperitoneal, 100 mg/kg every 2 days for 10 days; cited from earlier work.
Series [7] relates to mammary carcinoma cells, including MDA-MB-231 and 4T1. Also noted: method as in PMID 31473253. The following applies: 20 µM for PZ-DHA; cited from earlier work.

In the case of `CC/C=C\C/C=C\C/C=C\C/C=C\C/C=C\C/C=C\CCC(=O)OC[C@H]1O[C@@H](Oc2cc(O)cc(O)c2C(=O)CCc2ccc(O)cc2)[C@H](O)[C@@H](O)[C@@H]1O` [PZ-DHA, phloridzin docosahexaenoate], in series [1], the “PZ-DHA uptake and fold-increase in intracellular PZ and DHA versus the malignant cells” value was “similar”. Moreover, the “cellular uptake (as a % of the dose)” value in series [2] stood at 21%; in series [3] it was 50%. Further, in series [4], the “abundance in cells throughout the experimental period” value was “stable abundance”. Besides, the “cellular uptake (as a % of the dose), in words” value in series [4] (all cell lines) is reported as “significantly higher than that of PZ or DHA”. Besides, the “liver or kidney toxicity” value in series [5] is given as “does not show liver or kidney toxicity”. The “tumor growth and metastasis of 4T1 breast cancer cells” value in series [6] is “inhibits tumor growth and metastasis”. Also, the “migration and invasion of mammary carcinoma cells” value in series [7] is “significantly inhibits”.

Values taken from paper PMC7721897, “Metabolism and pharmacokinetics of a novel polyphenol fatty acid ester phloridzin docosahexaenoate in Balb/c female mice” (Scientific Reports, 2020).
